Measurements: PubChem BioAssay AID1918938 (Molecular Pharmacology Branch, DTP, NCI, 2023)

Tested on: 556581-035-R-J1-PDC complex spheroid viability
Experiment: Anticancer human tumor 556581-035-R-J1-PDC patient-derived ovarian carcinoma cell line growth inhibition
Settings: for IC50: curve of first compound; for viability, T/C: stronger effect = lower value
How it was run: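 Multicellular complex spheroids of tumor cells with human endothelial cells (HUVEC) and mesenchymal stem cells; the LSD1 inhibitor iadademstat was combined with standard-of-care or investigational agents. Top concentration at or near clinical Cmax, half-log dilutions; final DMSO ≤0.25%.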

[1] = second compound 0.1 µM, first compound 0.0316 µM
[2] = second compound 0.1 µM, first compound 0.1 µM
[3] = second compound 0.1 µM, first compound 0.316 µM
[4] = second compound 0.1 µM, first compound 1 µM
[5] = second compound 0.1 µM, first compound 3.16 µM
[6] = second compound 0.1 µM, first compound 10 µM
[7] = second compound 0.316 µM, first compound 0.0316 µM
[8] = second compound 0.316 µM, first compound 0.1 µM
[9] = second compound 0.316 µM, first compound 0.316 µM
[10] = second compound 0.316 µM, first compound 1 µM
[11] = second compound 0.316 µM, first compound 3.16 µM
[12] = second compound 0.316 µM, first compound 10 µM
[13] = second compound 1 µM, first compound 0.0316 µM
[14] = second compound 1 µM, first compound 0.1 µM
[15] = second compound 1 µM, first compound 0.316 µM
[16] = second compound 1 µM, first compound 1 µM
[17] = second compound 1 µM, first compound 3.16 µM
[18] = second compound 1 µM, first compound 10 µM
[19] = second compound 3.16 µM, first compound 0.0316 µM
[20] = second compound 3.16 µM, first compound 0.1 µM
[21] = second compound 3.16 µM, first compound 0.316 µM
[22] = second compound 3.16 µM, first compound 1 µM
[23] = second compound 3.16 µM, first compound 3.16 µM
[24] = second compound 3.16 µM, first compound 10 µM
[25] = second compound 10 µM, first compound 0.0316 µM
[26] = second compound 10 µM, first compound 0.1 µM
[27] = second compound 10 µM, first compound 0.316 µM
[28] = second compound 10 µM, first compound 1 µM
[29] = second compound 10 µM, first compound 3.16 µM
[30] = second compound 10 µM, first compound 10 µM
[31] = second compound 0.1 µM, first compound 0.00316 µM
[32] = second compound 0.1 µM, first compound 0.01 µM
[33] = second compound 0.316 µM, first compound 0.00316 µM
[34] = second compound 0.316 µM, first compound 0.01 µM
[35] = second compound 1 µM, first compound 0.00316 µM
[36] = second compound 1 µM, first compound 0.01 µM
[37] = second compound 3.16 µM, first compound 0.00316 µM
[38] = second compound 3.16 µM, first compound 0.01 µM
[39] = second compound 10 µM, first compound 0.00316 µM
[40] = second compound 10 µM, first compound 0.01 µM
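Note: spheroids exposed to agents for seven days.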
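Throughout, for viability, T/C: 100% = DMSO vehicle control wells.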

SMILES | IC50 (second compound 0.1 µM) [nM] | IC50 (second compound 0.316 µM) [nM] | IC50 (second compound 1 µM) [nM] | IC50 (second compound 3.16 µM) [nM] | IC50 (second compound 10 µM) [nM] | viability, T/C [1] [%] | viability, T/C [2] [%] | viability, T/C [3] [%] | viability, T/C [4] [%] | viability, T/C [7] [%] | viability, T/C [8] [%] | viability, T/C [9] [%] | viability, T/C [10] [%] | viability, T/C [13] [%] | viability, T/C [14] [%] | viability, T/C [15] [%] | viability, T/C [16] [%] | viability, T/C [19] [%] | viability, T/C [20] [%] | viability, T/C [21] [%] | other results
CC(C)c1c(-c2ccccc2)nc2c(C#N)c[nH]n2c1=O + NC1CCC(NC2CC2c2ccccc2)CC1 | > 10000 | > 10000 | > 10000 | 8290 | 4840 | 93.2 | 94.5 | 90.9 | 87.9 | 87 | 79.1 | 86.3 | 78.3 | 72.2 | 78.2 | 78 | 82.3 | 85.4 | 76.4 | 77.8 | viability, T/C [5]: 83%; viability, T/C [6]: 56.5%; viability, T/C [11]: 71.4%; viability, T/C [12]: 54.4%; viability, T/C [17]: 78.7%; viability, T/C [18]: 53.7%; viability, T/C [22]: 76%; viability, T/C [23]: 68.3%; viability, T/C [24]: 46.2%; viability, T/C [25]: 70%; viability, T/C [26]: 73.8%; viability, T/C [27]: 76%; viability, T/C [28]: 66.8%; viability, T/C [29]: 54%; viability, T/C [30]: 43.7%
CC1COCCN1c1cc(-c2ccnn2C)c2ccnc(-c3ccn[nH]3)c2n1 (stereo not given) + NC1CCC(NC2CC2c2ccccc2)CC1 | 46.2 | 27 | 25 | 21.6 | 11.9 | 55 | 38.3 | 36.1 | 14.8 | 46.3 | 38.2 | 29.8 | 15.3 | 45.6 | 36.8 | 36.8 | 17.9 | 44.3 | 39.8 | 35.8 | viability, T/C [31]: 64.5%; viability, T/C [32]: 61.4%; viability, T/C [33]: 72.9%; viability, T/C [34]: 58.8%; viability, T/C [35]: 61.1%; viability, T/C [36]: 59.7%; viability, T/C [37]: 62.5%; viability, T/C [38]: 54.7%; viability, T/C [22]: 19.2%; viability, T/C [39]: 50%; viability, T/C [40]: 55.5%; viability, T/C [25]: 44.8%; viability, T/C [26]: 38%; viability, T/C [27]: 30.5%; viability, T/C [28]: 17.3%
COc1ccc([C@@H](O)c2cc(-c3ncnc4cc(N5CCOCC5)ccc34)c(F)cc2Cl)nn1 + NC1CCC(NC2CC2c2ccccc2)CC1 | 943 | 582 | 906 | 847 | 639 | 91 | 80.4 | 69 | 47.9 | 80.3 | 81.6 | 60.6 | 39.9 | 76 | 76.1 | 66.9 | 46.6 | 79.5 | 78.6 | 65.3 | viability, T/C [5]: 37.7%; viability, T/C [6]: 32.9%; viability, T/C [11]: 37.7%; viability, T/C [12]: 28.8%; viability, T/C [17]: 35.6%; viability, T/C [18]: 25.6%; viability, T/C [22]: 45.3%; viability, T/C [23]: 37%; viability, T/C [24]: 25.9%; viability, T/C [25]: 63.2%; viability, T/C [26]: 63.2%; viability, T/C [27]: 56.3%; viability, T/C [28]: 44.6%; viability, T/C [29]: 33.3%; viability, T/C [30]: 17%
O=C(C=Cn1cnc(-c2cc(C(F)(F)F)cc(C(F)(F)F)c2)n1)NNc1cnccn1 + NC1CCC(NC2CC2c2ccccc2)CC1 | 214 | 138 | 289 | 254 | 340 | 78.6 | 59.9 | 44.8 | 24.6 | 78.8 | 49 | 44.1 | 25.2 | 77 | 68.2 | 48.6 | 20.1 | 75.5 | 67.2 | 46.2 | viability, T/C [31]: 75.4%; viability, T/C [32]: 78.2%; viability, T/C [33]: 81.8%; viability, T/C [34]: 86.2%; viability, T/C [35]: 76%; viability, T/C [36]: 74.7%; viability, T/C [37]: 75.8%; viability, T/C [38]: 86.9%; viability, T/C [22]: 25.3%; viability, T/C [39]: 67.2%; viability, T/C [40]: 71.7%; viability, T/C [25]: 66.6%; viability, T/C [26]: 61.8%; viability, T/C [27]: 53.5%; viability, T/C [28]: 17.3%
